Assay results from patent US8080580B2, “Dioxa-bicyclo[3.2.1]octane-2,3,4-triol derivatives” (Pfizer Inc., priority 2008, dated 2011).
Several values for one entry are separate records, joined by “and”; a condition that tells them apart may be missing. Equal values may be shown once.

Experiments:
[1] = molecular target: T1, human SGLT2 (Homo sapiens, UniProt P31639); assay: SGLT2 functional assay: inhibition of AMG uptake in CHO-FlpIn cells stably expressing human SGLT2; assay type: cell-based; settings: individual runs (Run No.), read-out: hSGLT2 IC50
T1 construct: expressed in transfected cells; host or cells: CHO-FlpIn (Invitrogen)
T1 sequence (P31639 1-672): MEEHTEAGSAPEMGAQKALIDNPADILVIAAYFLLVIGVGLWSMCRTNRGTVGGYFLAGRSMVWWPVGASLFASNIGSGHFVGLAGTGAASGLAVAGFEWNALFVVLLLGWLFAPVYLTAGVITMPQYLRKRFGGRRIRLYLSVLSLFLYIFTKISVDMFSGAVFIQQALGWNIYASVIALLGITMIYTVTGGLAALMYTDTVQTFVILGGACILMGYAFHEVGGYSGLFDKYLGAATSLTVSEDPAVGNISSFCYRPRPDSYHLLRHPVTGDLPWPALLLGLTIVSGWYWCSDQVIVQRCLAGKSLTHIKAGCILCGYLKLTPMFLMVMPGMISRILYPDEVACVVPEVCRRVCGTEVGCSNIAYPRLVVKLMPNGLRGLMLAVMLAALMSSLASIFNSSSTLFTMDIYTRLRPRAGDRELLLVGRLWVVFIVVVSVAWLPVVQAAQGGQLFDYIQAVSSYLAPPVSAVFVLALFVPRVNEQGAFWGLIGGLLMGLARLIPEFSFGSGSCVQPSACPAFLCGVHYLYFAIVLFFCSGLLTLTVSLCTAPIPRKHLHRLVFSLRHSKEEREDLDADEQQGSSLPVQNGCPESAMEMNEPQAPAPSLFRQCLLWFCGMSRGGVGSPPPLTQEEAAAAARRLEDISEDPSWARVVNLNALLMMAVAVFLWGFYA
Source text: The SGLT2 functional assay was designed to detect the inhibition of methyl-alpha-D glucopyranoside (AMG—a non-metabolizable form of glucose) uptake via the SGLT2 transporter. The SGLT2 transporter recovers glucose from the proximal tubules of the kidney; its inhibition results in sugar wasted in the urine. The positive control compound, Phlorizin, is a known inhibitor of glucose uptake for SGLT2 and was used for comparing the high percent effect of SGLT2 inhibition of the test compounds.
CHO-FlpIn (Invitrogen, Carlsbad, Calif.) cells stably expressing human SGLT2 (pcDNA5/FRT) were plated in Iso-TC 96 well plates (Perkin Elmer, Waltham, Mass.) at a density of 100,000 cells/well in 100 microL of growth media (1:1 F-12/DMEM media (Gibco, Carlsbad, Calif.), 10% FBS (Sigma, St. Louis Mo.), 1× Pen/Strep (Gibco, Carlsbad, Calif.), 600 microg/mL Hygromycin (Invitrogen, Carlsbad, Calif.)). Prior to treating with test compound, confluent cells were serum starved for 2 hours at 37° C. in 1:1 F-12/DMEM media, replacing with fresh F-12/DMEM media after 1 hour. […] Cell plates were then incubated for 3 hours at 37° C. for AMG uptake.

[2] = Pharmacokinetic testing in rats (IV or PO); assay type: in vivo; settings: rat, IV, 2 mg/kg
Protocol: Examples 1A, 2A, 4A, 12A, and 14A were tested in rats to assess pharmacokinetic parameters including maximum concentration (Cmax), area under the plasma concentration time curve (AUC), clearance (CL), steady state volume of distribution (Vss), half life (t1/2), and bioavailability (F). Male Sprague Dawley rats (˜300 g) were used. Rats received compound by intravenous (IV) or oral gavage (PO) administration and the doses tested including vehicle to formulate dosing solutions are listed in Table 5.
Following IV or PO administration, 0.2 mL blood was sampled from the jugular vein at various timepoints (Table 5). Twenty microL aliquots of plasma samples and standards were subjected to protein precipitation with acetonitrile containing an internal standard. Samples were vortexed and centrifuged to obtain supernatant which was analyzed by LC-MS/MS. Analyst (Version 1.4.1) was used to measure peak areas and peak area ratios of analyte to internal standard were calculated. LC-MS/MS conditions are as follows: Mass Spectrometer+Source Type was Sciex API 4000−Turbo Spray; HPLC pump was Shimadzu; Autosampler was CTC PAL Autosampler; Injection volume was 3.0 to 10 microL; A gradient was used with mobile phase A: 10 mM ammonium acetate and 1% Isopropyl alcohol in water; B: Acetonitrile; Flowrate 0.300 mL per minute (Column 2.0×30 mm 5 microm LUNA C18 column (phenomenex)). Detection mode was negative.
A calibration curve was constructed from the peak area ratios of the standards to the internal standard by applying a weighted linear (1/x or 1/x2) regression. The dynamic range of the standard curve was 5.00 ng/mL to 5000 ng/mL.
Pharmacokinetic parameters were determined from individual animal data using non-compartmental analysis in Watson (version 7.2). Concentrations below the limit of quantitation (BLQ) were recorded as 0 ng/mL for use in calculations.
The following calculations were used: AUC(0−τ)=Determined using the linear trapezoidal method AUC(0−□)=AUC(0−τ) plus extrapolated area determined by dividing plasma concentration at τ by the slope of the terminal log-linear phase CL=Dose/AUC(0−∞) Vdss=CL×MRT Cmax=Recorded directly from plasma concentration time curve Tmax=Recorded directly from plasma concentration time curve t½=ln(0.5)/slope of the terminal log-linear phase F %=AUC(0−∞)PO per dose/AUC(0−∞)IV per dose C(0)=Extrapolated by linear regression from the apparent distribution phase following IV administration MRT=AUMC(AUC(0−∞)/AUC(0−∞)

[3] = molecular target: T2, hSGLT1 (Homo sapiens, UniProt P13866); assay: SGLT1 functional assay: hSGLT1 IC50 (selectivity counter-screen to the SGLT2 AMG uptake assay); assay type: cell-based; settings: individual runs (Run No.)
T2 sequence (P13866 1-664): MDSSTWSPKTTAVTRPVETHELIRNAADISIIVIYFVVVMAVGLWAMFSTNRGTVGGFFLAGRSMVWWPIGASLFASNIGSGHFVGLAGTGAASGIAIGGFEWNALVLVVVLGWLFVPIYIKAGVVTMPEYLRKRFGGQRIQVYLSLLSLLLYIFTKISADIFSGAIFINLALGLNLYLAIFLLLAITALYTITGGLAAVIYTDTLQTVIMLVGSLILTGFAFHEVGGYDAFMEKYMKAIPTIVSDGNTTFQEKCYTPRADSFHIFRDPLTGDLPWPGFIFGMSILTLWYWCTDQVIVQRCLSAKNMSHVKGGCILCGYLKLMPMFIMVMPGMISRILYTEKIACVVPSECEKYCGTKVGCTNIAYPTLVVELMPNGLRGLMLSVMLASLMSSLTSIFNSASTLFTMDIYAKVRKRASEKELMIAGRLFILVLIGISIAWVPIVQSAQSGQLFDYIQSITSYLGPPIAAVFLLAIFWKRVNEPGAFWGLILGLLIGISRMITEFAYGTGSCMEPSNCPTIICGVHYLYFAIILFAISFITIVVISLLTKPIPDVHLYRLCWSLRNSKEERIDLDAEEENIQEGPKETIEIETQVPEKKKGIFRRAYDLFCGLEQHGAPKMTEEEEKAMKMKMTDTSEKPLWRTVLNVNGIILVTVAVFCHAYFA

Row | Structure (SMILES) | IC50 [1] | IC50 [3] | other results
1 | CCOc1ccc(Cc2cc([C@]34OC[C@](CO)(O3)[C@@H](O)[C@H](O)[C@H]4O)ccc2C)cc1 [Example 2A, (1S,2S,3S,4R,5S)-5-[3-(4-ethoxy-benzyl)-4-methyl-phenyl]-1-hydroxymethyl-6,8-dioxa-bicyclo[3.2.1]octane-2,3,4-triol] | 0.827 nM and 1.53 nM and 0.942 nM and 0.741 nM and 1.58 nM and 1.05 nM | 1240 nM and > 1000 nM and 679 nM | AUC(0-inf) ([2]; male, Sprague Dawley, plasma): 1340 ng·h/mL; CL [2]: 27.7 mL/min/kg; Vss [2]: 1.03 L/kg; t1/2 [2]: 0.94 h
2 | COc1ccc(Cc2cc([C@]34OC[C@](CO)(O3)[C@@H](O)[C@H](O)[C@H]4O)ccc2Cl)cc1 [Example 3A, (1S,2S,3S,4R,5S)-5-[4-chloro-3-(4-methoxy-benzyl)-phenyl]-1-hydroxymethyl-6,8-dioxa-bicyclo[3.2.1]octane-2,3,4-triol] | 0.479 nM and 0.972 nM and 1.39 nM and 0.811 nM and 0.602 nM and 0.588 nM and 1.35 nM | 543 nM and 397 nM and 550 nM and 757 nM and 523 nM and 672 nM and 380 nM | AUC(0-inf) ([2]; male, Sprague Dawley, plasma): 1410 ng·h/mL; half-life ([2]; male, Sprague Dawley, plasma): 1.58 h; CL [2]: 23.8 mL/min/kg; Vss [2]: 1.82 L/kg
3 | COc1ccc(Cc2cc([C@]34OC[C@](CO)(O3)[C@@H](O)[C@H](O)[C@@H]4O)ccc2Cl)cc1 [Example 3B, (1S,2S,3S,4S,5S)-5-[4-chloro-3-(4-methoxy-benzyl)-phenyl]-1-hydroxymethyl-6,8-dioxa-bicyclo[3.2.1]octane-2,3,4-triol] | 41.6 nM and 40.8 nM and 27.9 nM and 62.2 nM | > 10000 nM | 
4 | CCOc1ccc(Cc2cc([C@]34OC[C@](CO)(O3)[C@@H](O)[C@H](O)[C@@H]4O)ccc2Cl)cc1 [Example 4B, (1S,2S,3S,4S,5S)-5-[4-chloro-3-(4-ethoxy-benzyl)-phenyl]-1-hydroxymethyl-6,8-dioxa-bicyclo[3.2.1]octane-2,3,4-triol] | 122 nM and 66.8 nM and 81.7 nM | > 10000 nM | 
5 | COc1ccc(Cc2cc([C@]34OC[C@](CO)(O3)[C@@H](O)[C@H](O)[C@H]4O)ccc2F)cc1 [Example 5A, (1S,2S,3S,4R,5S)-5-[4-fluoro-3-(4-methoxy-benzyl)-phenyl]-1-hydroxymethyl-6,8-dioxa-bicyclo[3.2.1]octane-2,3,4-triol] |  | > 10000 nM and > 1000 nM and 5790 nM | 
6 | COc1ccc(Cc2cc([C@]34OC[C@](CO)(O3)[C@@H](O)[C@H](O)[C@@H]4O)ccc2F)cc1 [Example 5B, (1S,2S,3S,4S,5S)-5-[4-fluoro-3-(4-methoxy-benzyl)-phenyl]-1-hydroxymethyl-6,8-dioxa-bicyclo[3.2.1]octane-2,3,4-triol] | 186 nM | > 10000 nM | 
7 | COc1ccc(Cc2cc([C@]34OC[C@](CO)(O3)[C@@H](O)[C@H](O)[C@H]4O)ccc2C#N)cc1 [Example 6A, 2-(4-methoxybenzyl)-4-((1S,2S,3S,4R,5S)-2,3,4-trihydroxy-1-(hydroxymethyl)-6,8-dioxa-bicyclo[3,2,1]oct-5-yl)-benzonitrile] | 18.7 nM and 9.99 nM and 13.5 nM and 13.4 nM and 5.71 nM and 7.67 nM | > 10000 nM and > 1000 nM and 8930 nM | 
8 | CCOc1ccc(Cc2cc([C@]34OC[C@](CO)(O3)[C@@H](O)[C@H](O)[C@H]4O)ccc2C#N)cc1 [Example 7A, 2-(4-ethoxybenzyl)-4-((1S,2S,3S,4R,5S)-2,3,4-trihydroxy-1-(hydroxymethyl)-6,8-dioxa-bicyclo[3,2,1]oct-5-yl)-benzonitrile] | 10.6 nM and 6.38 nM and 5.88 nM and 6.11 nM | > 10000 nM | 
9 | CCOc1ccc(Cc2cc([C@]34OC[C@](CO)(O3)[C@@H](O)[C@H](O)[C@H]4O)ccc2F)cc1 [Example 10A] |  | > 10000 nM | 
10 | CCOc1ccc(Cc2cc([C@]34OC[C@](CO)(O3)[C@@H](O)[C@H](O)[C@@H]4O)ccc2F)cc1 [Example 10B, (1S,2S,3S,4S,5S)-5-[3-(4-ethoxy-benzyl)-4-fluoro-phenyl]-1-hydroxymethyl-6,8-dioxa-bicyclo[3.2.1]octane-2,3,4-triol] | 127 nM and 103 nM | > 10000 nM | 
11 | OC[C@@]12CO[C@@](c3ccc(F)c(Cc4ccc(OC5CCOC5)cc4)c3)(O1)[C@H](O)[C@@H](O)[C@@H]2O (stereo partly drawn) [Example 11A, (1S,2S,3S,4R,5S)-5-{4-fluoro-3-[4-(tetrahydro-furan-3-yloxy)-benzyl]-phenyl}-1-hydroxymethyl-6,8-dioxa-bicyclo[3.2.1]octane-2,3,4-triol] | 9.6 nM and 11.9 nM and 19.8 nM and 7.13 nM | > 10000 nM | 
12 | OC[C@@]12CO[C@@](c3ccc(F)c(Cc4ccc(Cl)cc4)c3)(O1)[C@H](O)[C@@H](O)[C@@H]2O [Example 12A, (1S,2S,3S,4R,5S)-5-[3-(4-chlorobenzyl)-4-fluorophenyl]-1-hydroxymethyl-6,8-dioxabicyclo[3.2.1]octane-2,3,4-triol] |  | > 10000 nM and 5780 nM | AUC(0-inf) ([2]; male, Sprague Dawley, plasma): 2200 ng·h/mL; clearance ([2]; male, Sprague Dawley, plasma): 15.9 mL/min/kg; half-life ([2]; male, Sprague Dawley, plasma): 3.9 h; Vd ([2]; male, Sprague Dawley, plasma, read-out: Vss): 3.68 L/kg
13 | OC[C@@]12CO[C@@](c3ccc(F)c(Cc4ccc(Cl)cc4)c3)(O1)[C@@H](O)[C@@H](O)[C@@H]2O [Example 12B, (1S,2S,3S,4S,5S)-5-[3-(4-chlorobenzyl)-4-fluorophenyl]-1-hydroxymethyl-6,8-dioxabicyclo[3.2.1]octane-2,3,4-triol] | 32.3 nM | > 3160 nM | 
14 | OC[C@@]12CO[C@@](c3ccc(F)c(Cc4ccc(OC5COC5)cc4)c3)(O1)[C@H](O)[C@@H](O)[C@@H]2O [Example 13A, (1S,2S,3S,4R,5S)-5-{4-fluoro-3-[4-(oxetan-3-yloxy)-benzyl]-phenyl}-1-hydroxymethyl-6,8-dioxa-bicyclo[3.2.1]octane-2,3,4-triol] | 14.9 nM and 17.8 nM | > 10000 nM | 
